Reference: the NIST ThermoML archive (doi:10.1016/j.tca.2010.06.003)
± gives the expanded uncertainty stated by the source.

Conditions: for Normal melting temperature: Crystal; for Triple point temperature: Crystal 2, DTA

| SMILES | Normal melting temperature [°C] | Triple point temperature [K] |
| --- | --- | --- |
| O=[N+]([O-])[O-].[K+] [potassium nitrate] | 333.6 ± 2 | 405.6 ± 0.5 |
| O=[N+]([O-])[O-].[Na+] [sodium nitrate] | 306.5 ± 2 | 545.5 ± 0.5 |
